Molecular target: T1, LptH (Pseudomonas aeruginosa, UniProt Q9HVV7)
T1 sequence (Q9HVV7 25-175): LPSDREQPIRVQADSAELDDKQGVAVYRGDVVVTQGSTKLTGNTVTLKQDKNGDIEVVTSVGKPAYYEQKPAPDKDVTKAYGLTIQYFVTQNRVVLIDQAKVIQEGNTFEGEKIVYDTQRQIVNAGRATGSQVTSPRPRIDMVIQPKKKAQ
Assay: native mass spectrometry
Type: biochemical, P. aeruginosa
Details: for Emax (in words): comparison within 2a derivatives

Emax (in words) (nMS) | SMILES | other results
highest Emax values of the series | COCOc1ccc(C(=O)NCCCC(=O)OC)c2cccnc12 [2e] | –
– | O=C(O)c1ccc(O)c2ncccc12 [2a, 5-carboxy-8-hydroxyquinoline] | increase in the monomer mole fraction (in words) (100 μM compound, nMS): minimal increase
highest Emax values of the series | COC(=O)CCCNC(=O)c1ccc(O)c2ncccc12 [2c] | –
– | Clc1cc2c(c3ncccc13)OCN(CCc1ccccc1)C2 [1a] | Emax (pH 8, read-out: Emax, maximum achievable monomer mole fraction): 73 ± 2%
